pIC50: −log10 of the molar value.
Legend:
Assay type in all cases: functional, cell-based
SW-620 = assay: Cytotoxicity against human SW620 cells after 24 hrs by MTT assay; details: SW-620, 24 h
RKO = assay: Cytotoxicity against human RKO cells after 24 hrs by MTT assay
LoVo = assay: Cytotoxicity against human LoVo cells after 24 hrs by MTT assay

| Compound | pIC50 (SW-620) | pIC50 (RKO) | pIC50 (LoVo) |
| --- | --- | --- | --- |
| C=C(C)[C@@]1(O)[C@H](OC(=O)/C=C/C=C/CCCCC)[C@@H]2[C@H](O)[C@@](O)(CO)[C@@H](O)[C@]3(O)C(=O)C(C)=C[C@H]3[C@@]2(O)[C@H](C)[C@H]1OC(=O)c1ccccc1 | < 5.00 | < 5.00 | < 5.00 |
| O=c1[nH]cc(F)c(=O)[nH]1 [FLUOROURACIL] | 5.00 | < 5.00 | – |
| C=C(C)[C@@]12O[C@@]3(/C=C/C=C/C=C\CCC)O[C@@H]1[C@@H]1[C@@H]4O[C@]4(CO)[C@@H](O)[C@]4(O)C(=O)C(C)=C[C@H]4[C@@]1(O3)[C@H](C)[C@H]2OC(=O)c1ccccc1 | < 5.00 | < 5.00 | < 5.00 |
| C=C(C)[C@@]12O[C@@]3(/C=C/C=C/CCCCC)O[C@@H]1[C@@H]1[C@@H]4O[C@]4(CO)[C@@H](O)[C@]4(O)C(=O)C(C)=C[C@H]4[C@@]1(O3)[C@H](C)[C@H]2OC(=O)c1ccccc1 [GNIDILATIDIN] | 5.37 | 5.19 | – |
| C=C(C)[C@@]12O[C@@]3(/C=C/C=C/CCCCC)O[C@@H]1[C@@H]1[C@@H]4O[C@]4(CO)[C@@H](O)[C@]4(O)C(=O)C(C)=C[C@H]4[C@@]1(O3)[C@H](C)[C@H]2O | < 5.00 | < 5.00 | < 5.00 |
| C=C(C)[C@@]12O[C@@]3(c4ccccc4)O[C@@H]1[C@@H]1[C@H](O)[C@@](O)(CO)[C@@H](O)[C@]4(O)C(=O)C(C)=C[C@H]4[C@@]1(O3)[C@H](C)[C@H]2OC(=O)c1ccccc1 | < 5.00 | < 5.00 | < 5.00 |
| C=C(C)[C@@]1(O)[C@H](OC(=O)/C=C/C=C/C=C/CCC)[C@@H]2[C@@H]3O[C@]3(CO)[C@@H](O)[C@]3(O)C(=O)C(C)=C[C@H]3[C@@]2(O)[C@H](C)[C@H]1OC(C)=O | < 5.00 | < 5.00 | < 5.00 |
| C=C(C)[C@@]12O[C@@]3(/C=C/C=C/CCCCC)O[C@@H]1[C@@H]1[C@@H]4O[C@]4(CO)[C@@H](O)[C@]4(O)C(=O)C(C)=C[C@H]4[C@@]1(O3)[C@H](C)[C@H]2OC(=O)CC | < 5.00 | < 5.00 | < 5.00 |
| C=C(C)[C@@]12O[C@@]3(c4ccccc4)O[C@@H]1[C@@H]1[C@@H]4O[C@]4(CO)[C@@H](O)[C@]4(O)C(=O)C(C)=C[C@H]4[C@@]1(O3)[C@H](C)[C@H]2OC(=O)CCC | < 5.00 | < 5.00 | < 5.00 |
| C=C(C)[C@@]12O[C@@]3(/C=C/C=C/CCCCC)O[C@@H]1[C@@H]1[C@@H]4O[C@]4(CO)[C@@H](O)[C@]4(O)C(=O)C(C)=C[C@H]4[C@@]1(O3)[C@H](C)[C@H]2OC(=O)C(C)C | < 5.00 | < 5.00 | < 5.00 |
| C=C(C)[C@@]12O[C@@]3(c4ccccc4)O[C@@H]1[C@@H]1[C@@H]4O[C@]4(CO)[C@@H](O)[C@]4(O)C(=O)C(C)=C[C@H]4[C@@]1(O3)[C@H](C)[C@H]2OC(=O)C(C)C | < 5.00 | < 5.00 | < 5.00 |
| C=C(C)[C@@]1(O)[C@H](OC(=O)/C=C/C=C/CCCCC)[C@@H]2[C@H](O)[C@@](O)(CO)[C@@H](O)[C@]3(O)C(=O)C(C)=C[C@H]3[C@@]2(O)[C@H](C)[C@H]1OC(C)=O | < 5.00 | < 5.00 | < 5.00 |
| C=C(C)[C@@]12O[C@@]3(/C=C/C=C/CCCCC)O[C@@H]1[C@@H]1[C@@H]4O[C@]4(CO)[C@@H](O)[C@]4(O)C(=O)C(C)=C[C@H]4[C@@]1(O3)[C@H](C)[C@H]2OC(=O)CCC | 5.28 | 5.01 | – |
| C=C(C)[C@@]1(O)[C@H](OC(=O)/C=C/C=C/CCCCC)[C@@H]2[C@@H]3O[C@]3(CO)[C@@H](O)[C@]3(O)C(=O)C(C)=C[C@H]3[C@@]2(O)[C@H](C)[C@H]1OC(=O)c1ccccc1 [YUANHUAOATE E] | < 5.00 | < 5.00 | < 5.00 |
| C=C(C)[C@@]12O[C@@]3(/C=C/C=C\CCCCC)O[C@@H]1[C@@H]1[C@@H]4O[C@]4(CO)[C@@H](O)[C@]4(O)C(=O)C(C)=C[C@H]4[C@@]1(O3)[C@H](C)[C@H]2OC(C)=O | < 5.00 | < 5.00 | < 5.00 |
| C=C(C)[C@@]12O[C@@]3(/C=C/C=C\CCCCC)O[C@@H]1[C@@H]1[C@@H]4O[C@]4(CO)[C@@H](O)[C@]4(O)C(=O)C(C)=C[C@H]4[C@@]1(O3)[C@H](C)[C@H]2OC(=O)c1ccccc1 | 5.07 | < 5.00 | – |
| C=C(C)[C@@]12O[C@@]3(/C=C/C=C/CCCCC)O[C@@H]1[C@@H]1[C@@H]4O[C@]4(CO)[C@@H](O)[C@]4(O)C(=O)C(C)=C[C@H]4[C@@]1(O3)[C@H](C)[C@H]2OC(C)=O [YUANHUADINE] | < 5.00 | < 5.00 | < 5.00 |
| C=C(C)[C@@]12O[C@@]3(/C=C/C=C/C=C\CCC)O[C@@H]1[C@@H]1[C@@H]4O[C@]4(CO)[C@@H](O)[C@]4(O)C(=O)C(C)=C[C@H]4[C@@]1(O3)[C@H](C)[C@H]2OC(C)=O | < 5.00 | < 5.00 | < 5.00 |
| C=C(C)[C@@]12O[C@@]3(c4ccccc4)O[C@@H]1[C@@H]1[C@@H]4O[C@]4(CO)[C@@H](O)[C@]4(O)C(=O)C(C)=C[C@H]4[C@@]1(O3)[C@H](C)[C@H]2OC(=O)c1ccccc1 | < 5.00 | < 5.00 | < 5.00 |
| C=C(C)[C@@]12O[C@@]3(c4ccccc4)O[C@@H]1[C@@H]1[C@@H]4O[C@]4(CO)[C@@H](O)[C@]4(O)C(=O)C(C)=C[C@H]4[C@@]1(O3)[C@H](C)[C@H]2OC(C)=O | < 5.00 | < 5.00 | < 5.00 |
| C=C(C)[C@@]1(O)[C@H](O)[C@@H]2[C@@H]3O[C@]3(CO)[C@@H](O)[C@]3(O)C(=O)C(C)=C[C@H]3[C@@]2(O)[C@H](C)[C@H]1OC(C)=O | < 5.00 | < 5.00 | < 5.00 |
| C=C(C)[C@@]1(O)[C@H](OC(=O)/C=C/C=C/CCCCC)[C@@H]2[C@@H]3O[C@]3(CO)[C@@H](O)[C@]3(O)C(=O)C(C)=C[C@H]3[C@@]2(O)[C@H](C)[C@H]1OC(C)=O | < 5.00 | < 5.00 | < 5.00 |
